Laboratory results taken from EP4803520A1, “COMPOUND CONTAINING FUSED BICYCLIC RING, PHARMACEUTICAL COMPOSITION, AND USE THEREOF” (priority 2023, dated 2025).
pIC50: −log10 of the molar value.

Experiments:
[1] = test system: MDA-MB-436 cells; experiment: Assay on inhibitory activity for MDA-MB-436 cell proliferation (CCK-8); type: cell-based; conditions: 168 h of incubation, CCK-8, absorbance at 450 nm
Protocol: MDA-MB-436 cells in a good growth state were collected into a centrifuge tube, adjusted to a cell density of 2 × 10^4 cells/mL using a complete medium (DMEM high glucose + 10% FBS + 1× insulin-transferrin-selenium (ITS-G) + 16 µg/mL reduced glutathione), and seeded in a 96-well plate (100 µL/well), and the plate was incubated overnight in a cell incubator. Compounds were added using a pipettor, such that the final concentrations of the compounds were 400 nM-0.02 nM. The wells were set in duplicate, and a control well was set. After 168 h of incubation in the cell incubator, the assay reagent CCK-8 (manufacturer: Dojindo Laboratories, Beijing; 10 µL/well) was added. After 1.5 h of incubation in the cell incubator, the absorbance values were measured at 450 nm on a PerkinElmer Envision microplate reader. […] Inhibitory activity results for DA-MB-436 cell proliferation of compounds

[2] = molecular target: T1, PARP1 (Homo sapiens, UniProt P09874); experiment: PARP1-Tracer activity assay (FP method); type: binding; design: purchased BPS 80551; conditions: for PARP2/PARP 1 selectivity: ratio of PARP2 IC50 to PARP1 IC50, FP method
T1 sequence (P09874 whole entry): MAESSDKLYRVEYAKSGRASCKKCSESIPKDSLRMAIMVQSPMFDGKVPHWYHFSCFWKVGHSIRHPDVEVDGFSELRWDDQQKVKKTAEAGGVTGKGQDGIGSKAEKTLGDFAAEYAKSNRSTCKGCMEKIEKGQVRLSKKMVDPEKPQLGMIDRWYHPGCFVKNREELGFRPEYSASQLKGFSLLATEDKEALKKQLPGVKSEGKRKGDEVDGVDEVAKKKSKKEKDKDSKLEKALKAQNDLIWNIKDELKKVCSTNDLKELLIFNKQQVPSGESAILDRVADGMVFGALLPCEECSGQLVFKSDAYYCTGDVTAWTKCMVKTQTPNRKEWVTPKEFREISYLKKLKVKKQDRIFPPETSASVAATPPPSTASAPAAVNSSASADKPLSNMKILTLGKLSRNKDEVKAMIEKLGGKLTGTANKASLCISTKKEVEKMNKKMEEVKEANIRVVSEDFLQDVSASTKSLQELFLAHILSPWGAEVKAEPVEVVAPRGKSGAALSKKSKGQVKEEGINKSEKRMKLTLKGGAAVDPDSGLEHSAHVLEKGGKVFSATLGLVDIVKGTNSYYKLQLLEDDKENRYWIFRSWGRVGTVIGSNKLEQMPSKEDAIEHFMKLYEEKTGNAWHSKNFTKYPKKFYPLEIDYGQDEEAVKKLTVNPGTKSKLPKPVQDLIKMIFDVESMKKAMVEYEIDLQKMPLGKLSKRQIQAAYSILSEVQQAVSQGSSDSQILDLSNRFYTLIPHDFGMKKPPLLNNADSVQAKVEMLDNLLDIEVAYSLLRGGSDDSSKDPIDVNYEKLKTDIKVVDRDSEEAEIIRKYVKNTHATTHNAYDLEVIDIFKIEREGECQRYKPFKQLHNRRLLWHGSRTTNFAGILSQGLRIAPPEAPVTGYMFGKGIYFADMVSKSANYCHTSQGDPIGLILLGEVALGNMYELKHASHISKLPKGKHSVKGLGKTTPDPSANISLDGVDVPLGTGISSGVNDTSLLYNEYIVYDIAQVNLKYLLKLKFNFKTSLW
Protocol: (§1) The enzyme inhibition activity of the compounds against PARP1/2-Tracer was tested using the FP method. First, 100 nL of inhibitors with a final concentration of 1% DMSO were transferred to a 384-well reaction plate (Corning 4514) using Echo655. Then, 5 µL of a PARP1/2 (BPS, Cat. No. 80501/80502) enzyme solution was added to each well, followed by centrifugation at 1000 RPM for 1 min at room temperature, and the reaction was allowed to proceed for 10 min. Subsequently, 5 µL of a Tracer (ICE, Cat. No. 001315-009) solution was added to each well, followed by centrifugation at 1000 RPM for 1 min at room temperature, and the reaction was allowed to proceed for 60 min. PARP1/2 and Tracer were prepared in a buffer containing 50 mM Tris (pH 8.0), 10 mM MgCl2, 150 mM NaCl, and 0.001% Triox-100, with final concentrations of 5/10 nM and 2.5 nM, respectively. Finally, the FP signal was read using BMG (PHERAstar FSX), and the IC50 values and nonlinear regression curve fitting were obtained using GraphPad Prism software.

[3] = molecular target: T1, PARP1; experiment: Assay on PARP1 protein activity (chemiluminescence assay kit)
Protocol: A chemiluminescence assay kit (BPS, Cat. No. 80551) was used. 50 µL of 1× histone was added to a 96-well plate and incubated overnight at 4 °C. Each well was washed 3 times with 200 µL of a PBST buffer (containing 0.05% Tween-20), and the liquid was removed from the plate. 200 µL of blocking buffer 3 was added, and the plate was blocked at room temperature for 60-90 min. The blocking solution was discarded, and the plate was washed 3 times with a PBST buffer, followed by the removal of the liquid from the plate. 25 µL of a master mix (2.5 µL of a 10× PARP buffer + 2.5 µL of a 10× biotinylated substrate assay mix + 5 µL of activated DNA (5×) + 15 µL of water) and 5 µL of a 1× PARP buffer were added to each well. Compounds were sprayed using a nanoliter pipettor in the compound groups. 20 µL of a 1× PARP buffer was added to the blank control group, and 20 µL of PARP 1 enzyme (2.4 ng/mL) was added to the other wells to initiate the reaction. The plate was incubated at room temperature for 1 h. 50 µL of streptavidin-HRP (diluted 1:50 in blocking buffer 3) was added to each well, and the plate was incubated at room temperature for 30 min. The plate was washed three times with PBST, and the liquid was removed from the plate. 50 µL of ELISA ECL substrate A and 50 µL of ELISA ECL substrate B were mixed on ice before use, and 100 µL were added to each well.

[4] = Rat pharmacokinetics; type: in vivo; conditions: plasma, SD rats
Excerpt: A non-compartmental model was used for fitting to calculate relevant pharmacokinetic parameters, and the results are shown in Table 4. Table 4. Pharmacokinetic results of compounds in rats

[5] = Experiment on brain distribution in rats; type: in vivo, SD rats; conditions: rat, po
[6] = molecular target: T2, PARP2 (Homo sapiens, UniProt Q9UGN5); experiment: PARP2-Tracer activity assay (FP method); type: binding; conditions: PARP2 10 nM, Tracer 2.5 nM
T2 construct: purchased BPS 80502
T2 sequence (Q9UGN5 whole entry): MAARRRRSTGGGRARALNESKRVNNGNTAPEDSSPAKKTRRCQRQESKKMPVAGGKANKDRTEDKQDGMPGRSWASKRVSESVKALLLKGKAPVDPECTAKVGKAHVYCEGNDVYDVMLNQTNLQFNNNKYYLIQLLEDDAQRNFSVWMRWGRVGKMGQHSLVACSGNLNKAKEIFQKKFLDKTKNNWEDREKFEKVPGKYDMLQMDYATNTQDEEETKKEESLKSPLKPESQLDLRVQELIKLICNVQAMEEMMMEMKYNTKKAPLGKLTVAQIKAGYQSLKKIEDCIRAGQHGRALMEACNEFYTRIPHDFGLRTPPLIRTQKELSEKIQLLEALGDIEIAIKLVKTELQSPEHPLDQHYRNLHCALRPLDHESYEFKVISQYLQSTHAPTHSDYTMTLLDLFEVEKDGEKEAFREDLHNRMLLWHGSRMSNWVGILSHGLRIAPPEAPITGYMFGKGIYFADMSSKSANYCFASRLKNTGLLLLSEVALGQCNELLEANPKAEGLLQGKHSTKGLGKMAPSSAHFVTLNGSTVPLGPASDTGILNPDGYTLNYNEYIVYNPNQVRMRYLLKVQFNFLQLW
Protocol: as §1

[7] = test system: MDA-MB-436 BRCA1m human breast cancer nude mouse subcutaneous xenograft tumor model; experiment: Pharmacodynamic evaluation in nude mouse subcutaneous xenograft tumor model; type: in vivo, nude mice; conditions: ig 4 mg/kg once daily, after 22 days of administration
Protocol: MDA-MB-436 BRCA1m human breast cancer cells (5 × 10^6 cells/mouse) were inoculated subcutaneously into the right axilla of SPF-grade female nude mice. When the mean tumor volume reached about 150 mm^3, the animals were grouped.
The day of grouping was defined as day 0. The compound of the present application was intragastrically administered once on day 0, and was then administered once daily at a dose of 4 mg/kg with a vehicle of DMSO:PEG400 = 10:90 (v/v). The tumor volume and body weight were measured twice to thrice every week, and the data were recorded. The general behavior of the mice was observed and recorded every day. After the experiment was completed, the tumors were extracted, weighed, and photographed.
The detection parameters and the calculation formulas are as follows: Tumor volume TV (mm^3) = 1/2 × (a×b^2), [formula] where a represents the long diameter of the tumor, and b represents the short diameter of the tumor. Relative tumor volume RTV = TVt /TV0 , [formula] wherein TV0 represents the tumor volume on day 0, and TVt represents the tumor volume at each measurement. Relative tumor proliferation rate T/C (%) = (TRTV/CRTV) × 100%, [formula] where TRTV represents RTV of the treatment group, and CRTV represents RTV of the vehicle control group. […]

[8] = Mouse pharmacokinetics; type: in vivo; conditions: plasma, ICR mice
Excerpt: A non-compartmental model was used for fitting to calculate relevant pharmacokinetic parameters, and the results are shown in Table 3. Table 3. Pharmacokinetic results of compounds in mice

CNC(=O)n1cc2c(n1)CN(C1CN(Cc3ccc4cc(C(F)(F)F)c(=O)[nH]c4c3)[C@@H]1C)C2 (single isomer, unassigned) [Compound 35]
pIC50 ([1]; Homo sapiens, MDA-MB-436): ≥ 7.30

CNC(=O)n1cc2c(n1)CN(C1CN(Cc3ccc4cc(C5CC5)c(=O)[nH]c4c3)[C@@H]1C)C2 (single isomer, unassigned) [Compound 40]
pIC50 ([1]; Homo sapiens, MDA-MB-436): ≥ 7.30

CCc1cc2ccc(CN3CC(N4Cc5cn(C(=O)NC)nc5C4)C3)cc2[nH]c1=O [Compound 1]
pIC50 [1]: ≥ 7.30

CNC(=O)n1cc2c(n1)CN(C1CN(Cc3ccc4cc(C5CC5)c(=O)[nH]c4c3)C1)C2 [Compound 2]
pIC50 ([1]; Homo sapiens, MDA-MB-436): ≥ 7.30

CCc1cc2ccc(CN3CC(N4Cc5cn(C(=O)NC6CC6)nc5C4)C3)cc2[nH]c1=O [Compound 4]
pIC50 [1]: ≥ 7.30

CCc1cc2ncc(CN3CC(N4Cc5cn(C(=O)NC6CC6)nc5C4)C3)cc2[nH]c1=O [Compound 5]
pIC50 [1]: ≥ 7.30

CCc1cc2ncc(CN3CC(N4Cc5nc(C(=O)NC)sc5C4)C3)cc2[nH]c1=O [Compound 7]
pIC50 [1]: ≥ 7.30

CCc1cc2ccc(CN3CC(N4Cc5cn(C(=O)NC(C)C)nc5C4)C3)cc2[nH]c1=O [Compound 9]
pIC50 [1]: ≥ 7.30

CCc1cc2ncc(CN3CC(N4Cc5cn(C(=O)NC)nc5C4)C3)cc2[nH]c1=O [Compound 10]
pIC50 [1]: ≥ 7.30

O=C(NC1CC1)n1cc2c(n1)CN(C1CN(Cc3ccc4cc(C5CC5)c(=O)[nH]c4c3)C1)C2 [Compound 11]
pIC50 [1]: ≥ 7.30

CCNC(=O)n1cc2c(n1)CN(C1CN(Cc3ccc4cc(CC)c(=O)[nH]c4c3)C1)C2 [Compound 13]
pIC50 [1]: ≥ 7.30

CNC(=O)n1cc2c(n1)CN(C1CN(Cc3ccc4c5c(c(=O)[nH]c4c3)CCC5)C1)C2 [Compound 15]
pIC50 [1]: ≥ 7.30

CCc1cc2c(F)cc(CN3CC(N4Cc5cn(C(=O)NC)nc5C4)C3)cc2[nH]c1=O [Compound 16]
pIC50 [1]: ≥ 7.30

CCc1cc2ccc(CN3CC(N4Cc5cn(C(=O)N[C@@H]6CCOC6)nc5C4)C3)cc2[nH]c1=O [Compound 17]
pIC50 ([1]; Homo sapiens, MDA-MB-436): ≥ 7.30

CCc1cc2cc(F)c(CN3CC(N4Cc5cn(C(=O)NC)nc5C4)C3)cc2[nH]c1=O [Compound 18]
pIC50 ([1]; Homo sapiens, MDA-MB-436): ≥ 7.30

CCc1cc2ccc(CN3CC(N4Cc5nc(C(=O)NC)sc5C4)C3)cc2[nH]c1=O [Compound 19]
pIC50 ([1]; Homo sapiens, MDA-MB-436): ≥ 7.30

CCc1cc2c(F)cc(CN3CC(N4Cc5cn(C(=O)NC6CC6)nc5C4)C3)cc2[nH]c1=O [Compound 20]
pIC50 ([1]; Homo sapiens, MDA-MB-436): ≥ 7.30

CCc1cc2c(F)cc(CN3CC(N4Cc5nc(C(=O)NC)sc5C4)C3)cc2[nH]c1=O [Compound 21]
pIC50 ([1]; Homo sapiens, MDA-MB-436): ≥ 7.30

CNC(=O)n1cc2c(n1)CN(C1CN(Cc3ccc4cc(C)c(=O)[nH]c4c3)C1)C2 [Compound 22]
pIC50 ([1]; Homo sapiens, MDA-MB-436): ≥ 7.30

Cc1cc2ccc(CN3CC(N4Cc5cn(C(=O)NC6CC6)nc5C4)C3)cc2[nH]c1=O [Compound 23]
pIC50 ([1]; Homo sapiens, MDA-MB-436): ≥ 7.30

CNC(=O)n1cc2c(n1)CN(C1CN(Cc3ccc4cc(C(F)(F)F)c(=O)[nH]c4c3)C1)C2 [Compound 24]
pIC50 ([1]; Homo sapiens, MDA-MB-436): ≥ 7.30
PARP2/PARP 1 selectivity [2]: >200 fold

CCc1cc2c(Cl)cc(CN3CC(N4Cc5cn(C(=O)NC)nc5C4)C3)cc2[nH]c1=O [Compound 25]
pIC50 ([1]; Homo sapiens, MDA-MB-436): ≥ 7.30

CNC(=O)n1cc2c(n1)CN(C1CN(Cc3ccc4cc(Cl)c(=O)[nH]c4c3)C1)C2 [Compound 26]
pIC50 ([1]; Homo sapiens, MDA-MB-436): ≥ 7.30

CNC(=O)c1nc2c(s1)CN(C1CN(Cc3ccc4cc(Cl)c(=O)[nH]c4c3)C1)C2 [Compound 27]
pIC50 ([1]; Homo sapiens, MDA-MB-436): ≥ 7.30

CNC(=O)c1nc2c(s1)CN(C1CN(Cc3ccc4cc(C(F)(F)F)c(=O)[nH]c4c3)C1)C2 [Compound 28]
pIC50 ([1]; Homo sapiens, MDA-MB-436): ≥ 7.30

CCc1cc2ccc(CN3CC(N4Cc5cn(C(=O)NC)nc5C4)C3)c(F)c2[nH]c1=O [Compound 29]
pIC50 ([1]; Homo sapiens, MDA-MB-436): ≥ 7.30

CCc1cc2ccc(CN3CC(N4Cc5nc(C(=O)NC)sc5C4)C3)c(F)c2[nH]c1=O [Compound 30]
pIC50 ([1]; Homo sapiens, MDA-MB-436): ≥ 7.30

CNC(=O)c1nc2c(s1)CN(C1CN(Cc3ccc4cc(C5CC5)c(=O)[nH]c4c3)C1)C2 [Compound 31]
pIC50 ([1]; Homo sapiens, MDA-MB-436): ≥ 7.30

CNC(=O)c1cc2c(s1)CN(C1CN(Cc3ccc4cc(C(F)(F)F)c(=O)[nH]c4c3)C1)C2 [Compound 33]
pIC50 ([1]; Homo sapiens, MDA-MB-436): ≥ 7.30

CNC(=O)n1cc2c(n1)CN(C1CN(Cc3ccc4c(c3)[nH]c(=O)n3cccc43)C1)C2 [Compound 34]
pIC50 ([1]; Homo sapiens, MDA-MB-436): ≥ 7.30

CNC(=O)n1cc2c(n1)CN([C@H]1CN(Cc3ccc4cc(C(F)(F)F)c(=O)[nH]c4c3)[C@H]1C)C2 [Compound 36]
pIC50 ([1]; Homo sapiens, MDA-MB-436): ≥ 7.30

CCc1cc2ccc(CN3C[C@H](N4Cc5cn(C(=O)NC)nc5C4)[C@@H]3C)cc2[nH]c1=O [Compound 41]
pIC50 ([1]; Homo sapiens, MDA-MB-436): ≥ 7.30
pIC50 [3]: > 8.00

CNC(=O)n1cc2c(n1)CN([C@H]1CN(Cc3ccc4cc(C5CC5)c(=O)[nH]c4c3)[C@H]1C)C2 [Compound 42]
pIC50 ([1]; Homo sapiens, MDA-MB-436): ≥ 7.30
pIC50 [3]: > 9.00

CNC(=O)n1cc2c(n1)CN([C@@H]1CN(Cc3ccc4cc(C5CC5)c(=O)[nH]c4c3)[C@H]1C)C2 [Compound 43]
pIC50 [1]: ≥ 7.30

CCc1nc2ccc(CN3C[C@H](N4Cc5cn(C(=O)NC)nc5C4)[C@@H]3C)cc2[nH]c1=O [Compound 45]
pIC50 ([1]; Homo sapiens, MDA-MB-436): ≥ 7.30
PARP2/PARP 1 selectivity [2]: >200 fold

CCc1cc2ncc(CN3C[C@H](N4Cc5cn(C(=O)NC)nc5C4)[C@@H]3C)cc2[nH]c1=O [Compound 47]
pIC50 ([1]; Homo sapiens, MDA-MB-436): ≥ 7.30
pIC50 [3]: > 9.00

CNC(=O)n1cc2c(n1)CN(C1CN(Cc3ccc4c(C)c(C(F)(F)F)c(=O)[nH]c4c3)C1)C2 [Compound 50]
pIC50 ([1]; Homo sapiens, MDA-MB-436): ≥ 7.30
pIC50 [3]: > 9.00

CCc1nc2ccc(CN3C[C@H](N4Cc5cn(C(=O)NC)nc5C4)[C@@H]3C)c(F)c2[nH]c1=O [Compound 51]
pIC50 ([1]; Homo sapiens, MDA-MB-436): ≥ 7.30

CNC(=O)n1cc2c(n1)CN([C@H]1CN(Cc3ccc4c(C)c(C(F)(F)F)c(=O)[nH]c4c3)[C@H]1C)C2 [Compound 54]
pIC50 ([1]; Homo sapiens, MDA-MB-436): ≥ 7.30
pIC50 [3]: > 9.00

CNC(=O)n1cc2c(n1)CN([C@H]1CN(Cc3ccc4cc(C(F)(F)F)c(=O)[nH]c4c3F)[C@H]1C)C2 [Compound 55]
pIC50 ([1]; Homo sapiens, MDA-MB-436): ≥ 7.30
AUC(0-t) ([4]; iv 0.1 mg/kg): 326 ng·h/mL
half-life ([4]; iv 0.1 mg/kg): 4.74 h
AUC(0-t) ([4]; po, ig 0.5 mg/kg): 1710 ng·h/mL
Cmax ([4]; po, ig 0.5 mg/kg): 208 ng/mL
half-life ([4]; po, ig 0.5 mg/kg): 4.76 h
Kp at 8 h ([5]; brain, 2 mg/kg, read-out: Brain-to-blood ratio): 0.082
AUC at 8 h ([5]; SD rats, ig 2 mg/kg, brain homogenate): 453 ng·h/mL
AUC(0-t) at 8 h ([5]; SD rats, ig 2 mg/kg, plasma): 5530 ng·h/mL
pIC50 [6]: < 6.30
pIC50 ([2]; FP method, PARP1 5 nM, Tracer 2.5 nM): 8.51
PARP2/PARP 1 selectivity [2]: >200 fold
tumor inhibition rate [7]: up to 97%
pIC50 [3]: > 9.00
AUC(0-t) ([8]; iv 0.1 mg/kg): 6650 ng·h/mL
half-life ([8]; iv 0.1 mg/kg): 13.6 h
AUC(0-t) ([8]; po, ig 0.1 mg/kg): 5490 ng·h/mL
Cmax ([8]; po, ig 0.1 mg/kg): 331 ng/mL
